# Measurements from US20240408057A1, “Composition for preventing or treating cachexia and muscle loss” (METAFINES.CO.LTD., priority 2023, published 2024).
# Where two headings read alike, the source gives them in different places.
# What was measured:
# Myogenin = Myogenin expression in mouse muscle tissue, CT26 cachexia model; format: in vivo, Balb/c mice; settings: CT26 Balb/c cachexia model, 21 days
# IL-1β = IL-1β in mouse blood, CT26 cachexia model; format: in vivo, Balb/c mice; settings: CT26 Balb/c cachexia model, 21 days; G4 PO 200 mpk, G5 IV 100 mpk, G6 IV 200 mpk; vs vehicle control G2
# Description: The mice were sacrificed, and IL-1β and lactate were analyzed using the blood serum collected at autopsy, and the results are summarized in FIGS. 48A and 48B.
# In FIG. 48, each group represents the following.
# C2C12 myotube cells = assay: Myotube diameter (crystal violet, Image J) of CCM-treated C2C12 myotubes; format: cell-based, mouse; settings: C2C12 myotubes + CCM 1:1, 72 hours
# Description: A C2C12 cell line was dispensed into a 6-well plate at 4.0×10^5 cells/well, and then cultured in DMEM medium containing 10% fetal bovine serum (FBS) under 37° C. and 5% CO2 conditions for one day. When the cell density reached about 80%, the medium was replaced with a differentiation medium and the cells were cultured for additional 3 days. […] The myotube diameter was measured using Image J from the above image, and the change in myotube cell diameter is summarized in FIG. 17B. A C2C12 cell line was dispensed into a 6-well plate at 4.0×10^5 cells/well, and then cultured in DMEM medium containing 10% fetal bovine serum (FBS) under 37° C. and 5% CO2 conditions for one day. When the cell density reached about 80%, the medium was replaced with a differentiation medium and the cells were cultured for additional 3 days. […] The myotube diameter was measured using Image J from the above images, and the changes in myotube cell diameter are summarized in FIG. 24B.
# MuRF1 = MuRF1 expression in mouse muscle tissue, CT26 cachexia model; format: in vivo, Balb/c mice; settings: CT26 Balb/c cachexia model, 21 days; G4 PO 200 mpk, G5 IV 100 mpk, G6 IV 200 mpk; vs vehicle control G2
# [1] = target: T1, human recombinant cyclooxygenase COX-2 (Homo sapiens, UniProt P35354); assay: Inhibition of COX2 (Ampliflu Red spectrofluorescence); format: biochemical; settings: 10 μM, compared with untreated group
# T1 construct: host or cells: insect Sf21 cells
# T1 sequence (P35354 18-604): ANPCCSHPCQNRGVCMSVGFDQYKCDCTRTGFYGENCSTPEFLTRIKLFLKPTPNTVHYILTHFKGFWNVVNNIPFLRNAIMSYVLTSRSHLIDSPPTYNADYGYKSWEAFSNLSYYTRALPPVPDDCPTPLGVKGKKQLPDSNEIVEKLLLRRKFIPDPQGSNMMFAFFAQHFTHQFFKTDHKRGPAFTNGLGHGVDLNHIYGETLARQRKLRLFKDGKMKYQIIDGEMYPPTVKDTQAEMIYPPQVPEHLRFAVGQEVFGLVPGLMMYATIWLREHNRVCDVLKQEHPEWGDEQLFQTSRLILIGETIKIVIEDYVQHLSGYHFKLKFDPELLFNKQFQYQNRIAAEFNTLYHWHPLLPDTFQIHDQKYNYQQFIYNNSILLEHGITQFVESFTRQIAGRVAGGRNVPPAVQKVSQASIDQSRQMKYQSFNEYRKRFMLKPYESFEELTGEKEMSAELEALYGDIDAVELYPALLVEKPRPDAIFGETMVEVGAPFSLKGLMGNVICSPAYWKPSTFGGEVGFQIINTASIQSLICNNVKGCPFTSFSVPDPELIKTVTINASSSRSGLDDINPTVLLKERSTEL
# Description: At this time, the concentration of the calcium salt contained in the buffer solution was set to 10 μM. As an enzyme, 34 U/mL of human recombinant cyclooxygenase COX-2 expressed in insect Sf21 cells was further added to the buffer solution, and pre-reacted at 25° C. for 15 minutes. In addition, 3 μM arachidonic acid and 100 μM Ampliflu Red were added and reacted at 25° C. for 3 minutes. The amount of Resofurin produced in the reaction process was measured at 535 nm/590 nm by a spectrofluorescence method, and the inhibitory effect on COX2 was confirmed by comparing with the calcium salt untreated group.
# Calpain 3 [2] = assay: Calpain 3 expression (Western blot) in CCM-treated C2C12 myotubes; format: cell-based, mouse
# Description: C2C12 cell line was dispensed into a 6-well plate at 4.0×10^5 cells/well and cultured in DMEM medium containing 10% fetal bovine serum (FBS) under 37° C. and 5% CO2 conditions for one day. When the cell density reached about 80%, the medium was replaced with a differentiation medium and the cells were cultured for additional 3 days. […] After culturing for 72 hours, the cells were collected and analyzed for PDK-4, which is a target marker, by Western blot and the results are summarized in FIG. 6.
# The experiment was performed in the same manner as in Experimental Example 3-1, except that Calpain 3 was analyzed as a target marker for Western blot, and the results are summarized in FIG. 7.
# A C2C12 cell line was dispensed into a 6-well plate at 4.0×10^5 cells/well, and then cultured in DMEM medium containing 10% fetal bovine serum (FBS) under 37° C. and 5% CO2 conditions for one day. When the cell density reached about 80%, the medium was replaced with a differentiation medium and the cells were cultured for additional 3 days.
# [3] = Inhibition of weight loss in cancer cachexia animal model; format: in vivo, Balb/c mice; settings: CT26 Balb/c cachexia model, G6 IV 200 mpk, p<0.05
# Source text: In FIG. 49, each group represents the following.
# Calpain 3 [4] = assay: Calpain 3 expression in mouse muscle tissue, CT26 cachexia model; format: in vivo, Balb/c mice; settings: CT26 Balb/c cachexia model, 21 days, G6 IV 200 mpk
# Source text: (§1) In FIG. 47, each group represents the following.
# PDK-4 = settings: CT26 Balb/c cachexia model, 21 days
# Source text: The mice were sacrificed, and the skeletal muscle in the quadriceps was extracted during autopsy, and tissue was homogenized, and proteins were extracted through RIPA lysis buffer, followed by Western blot analysis.
# as §1
# [5] = tested on: skeletal muscle (gastrocnemius, quadriceps, and soleus); settings: CT26 Balb/c cachexia model, 21 days
# Description: A CT26 mouse colorectal cancer cell line was subcutaneously transplanted into Balb/c mice to construct a syngeneic model, and the calcium salt (Asc-Ca-DCA) of Preparation
# Example 1 was administered to the mice for a total of 21 days. The mice were sacrificed, and three types of skeletal muscle (gastrocnemius, quadriceps, and soleus) were extracted at autopsy, and histopathological analysis was performed. Cross-sectional images of muscle tissue were obtained, and the muscle fiber cross-sectional area (CSA) was measured, and the results are summarized in FIGS. 50 to 52.
# In FIGS. 50 to 52, each group represents the following. […] Scale bars inserted in A to F of FIGS. 50 to 52 represent a horizontal length of 100 μm.
# [6] = G4 PO 200 mpk, G5 IV 100 mpk, G6 IV 200 mpk, vs vehicle control G2
# [7] = G4 to G6, compared to G3 megestrol 125 mpk
smiles,measurement,setting,value
"O=C([O-])C(Cl)Cl.O=C1OC(C(O)CO)C([O-])=C1O.[Ca+2] (centres unmarked) [Preparation Example 1, calcium salts of ascorbic acid and dichloroacetic acid]",expression level of Myogenin in quadriceps,Myogenin; [6],increase in the expression levels
same,expression of Myogenin in quadriceps,"Myogenin; G4 to G6, compared to G3 megestrol 125 mpk oral",increasing the expression
same,IL-1β in blood serum,IL-1β,decrease in the expression levels
same,diameter of myotube cells,"C2C12 myotube cells; predetermined concentration, compared to CCM",increased the diameter up to a level similar to that of the normal control group (UCM)
same,concentration from which the diameter reduction of myotubes was significantly inhibited,C2C12 myotube cells; three predetermined concentrations,≥ 10 µM
same,expression level of MuRF1 in quadriceps,MuRF1,decrease in the expression levels
same,inhibitory effect on COX2,[1],74%
same,expression level of Calpain 3,"Calpain 3 [2]; C2C12 myotubes + CCM, 72 hours, compared to other experimental groups (components alone and in combination)",higher expression level
same,expression level of Calpain 3,"Calpain 3 [2]; C2C12 myotubes, differentiation medium:CCM 1:1, 72 hours, three predetermined concentrations, vs CCM control",decrease in expression was inhibited
same,weight increase compared to G2,[3]; 17th day,about 6%
same,weight increase compared to G2,[3]; 20th day,~13%
same,expression level of Calpain 3 in quadriceps,"Calpain 3 [4]; G4 PO 200 mpk, G5 IV 100 mpk, vs vehicle control G2",increase in the expression level
same,expression level of Calpain 3 in quadriceps,Calpain 3 [4]; compared to G3 megestrol 125 mpk,excellent effect of increasing the expression level
same,expression level of PDK-4 in quadriceps,PDK-4; [6],decrease in the expression level
same,expression level of PDK-4 in quadriceps,PDK-4; [7],excellent effect of reducing the expression level
same,"cross-sectional area of muscle tissue (gastrocnemius, quadriceps, soleus)",[5]; [6],increased the cross-sectional area
same,"cross-sectional area of muscle tissue (gastrocnemius, quadriceps, soleus)",[5]; [7],level similar
